Laboratory results: ChEMBL document CHEMBL4420076, “Amylin and calcitonin receptor agonist” (2017)
Numbered stars: 1 amine (or outer) side, 2 acyl side, 3 side chain; on linkers, the order of the positions; unused ones are H or OH. Side chains are listed from the residue outwards. Peptide text beside a SMILES is read from it. * marks the point of attachment. C20 diacid = O=C(O)CCCCCCCCCCCCCCCCCCC(=O)*; γGlu = O=C(O)[C@H](CCC(=O)[*:2])N[*:1]; AEEA = NCCOCCOCC(=O)O

How the values were obtained:
Rattus norvegicus [1] = assay: Reduction in food intake in Sprague-Dawley rat at 3 nmol/kg measured 0 to 24 hrs post dose relative to control; format: functional; set-up: scale not given: the % may be the effect or the level left
Rattus norvegicus [2] = assay: Reduction in food intake in Sprague-Dawley rat at 3 nmol/kg measured 24 to 48 hrs post dose relative to control; format: functional; set-up: scale not given: the % may be the effect or the level left
[3] = biological target: T1, Amylin receptor AMY3; CALCR/RAMP3 (Homo sapiens, UniProt O60896+P30988); assay: Agonist activity at human amylin receptor expressed in BHK570 cells co-expressing RAMP3 assessed as increase in intracellular cAMP concentration incubated for 3 hrs in absence of albumin by CRE luciferase reporter gene assay; format: functional, cell-based
T1 sequence (P30988 whole entry): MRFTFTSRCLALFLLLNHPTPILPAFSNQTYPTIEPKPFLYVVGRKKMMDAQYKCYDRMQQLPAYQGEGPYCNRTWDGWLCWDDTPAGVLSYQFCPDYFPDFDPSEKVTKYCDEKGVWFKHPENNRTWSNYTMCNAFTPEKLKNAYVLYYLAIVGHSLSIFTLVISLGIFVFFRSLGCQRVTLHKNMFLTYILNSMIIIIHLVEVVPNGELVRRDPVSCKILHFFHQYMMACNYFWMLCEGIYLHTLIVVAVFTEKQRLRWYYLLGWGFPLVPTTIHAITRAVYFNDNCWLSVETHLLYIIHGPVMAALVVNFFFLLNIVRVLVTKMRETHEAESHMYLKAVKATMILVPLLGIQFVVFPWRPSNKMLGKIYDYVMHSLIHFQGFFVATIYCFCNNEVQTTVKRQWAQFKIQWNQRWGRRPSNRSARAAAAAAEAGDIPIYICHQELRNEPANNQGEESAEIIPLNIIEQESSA
T1 sequence (O60896 whole entry): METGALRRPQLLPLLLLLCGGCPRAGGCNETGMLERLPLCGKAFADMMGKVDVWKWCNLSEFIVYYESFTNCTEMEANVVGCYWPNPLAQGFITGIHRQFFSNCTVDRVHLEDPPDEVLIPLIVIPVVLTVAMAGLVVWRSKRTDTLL

Calcitonin receptor [4] = biological target: T2, Calcitonin receptor (Homo sapiens, UniProt P30988); assay: Agonist activity at human calcitonin receptor expressed in BHK570 cells assessed as increase in intracellular cAMP concentration incubated for 3 hrs in absence of albumin by CRE luciferase reporter gene assay; format: functional, cell-based
T2 sequence (P30988 whole entry): T1 sequence (P30988 whole entry)

Calcitonin receptor [5] = biological target: T2, Calcitonin receptor; assay: Agonist activity at human calcitonin receptor expressed in BHK570 cells assessed as increase in intracellular cAMP concentration incubated for 3 hrs in presence of 10% FBS by CRE luciferase reporter gene assay; format: functional, cell-based
[6] = Stability in pH 7.5 buffer assessed as lag time for fibril formation at 1 uM by Thioflavin T based fluorescence assay; format: physicochemical; details: pH 7.5, 1 µM
[7] = Stability in pH 7.5 buffer assessed as compound recovery at 1 uM by Thioflavin T based fluorescence assay; format: physicochemical; details: read-out: Drug recovery
[8] = Solubility in 100 mM glycylglycine buffer at pH 3.0 incubated for 18 hrs by UPLC analysis; format: physicochemical
[9] = Solubility in 100 mM glycylglycine buffer at pH 4.0 incubated for 18 hrs by UPLC analysis; format: physicochemical
[10] = Solubility in 100 mM glycylglycine buffer at pH 5.0 incubated for 18 hrs by UPLC analysis; format: physicochemical
[11] = Solubility in 100 mM bistrispropane buffer at pH 7.5 incubated for 18 hrs by UPLC analysis; format: physicochemical
[12] = Solubility in 100 mM bistrispropane buffer at pH 8.0 incubated for 18 hrs by UPLC analysis; format: physicochemical
[13] = biological target: T1, Amylin receptor AMY3; CALCR/RAMP3; assay: Displacement of [125I]-labeled rat amylin from human amylin receptor expressed in BHK tkts13 whole cells co-expressing RAMP3 incubated for 60 mins by scintillation proximity assay; format: cell-based
Calcitonin receptor [14] = biological target: T2, Calcitonin receptor; assay: Displacement of [125I]-labeled human calcitonin from human calcitonin receptor expressed in BHK tkts13 whole cells incubated for 60 mins by scintillation proximity assay; format: cell-based
[15] = biological target: T1, Amylin receptor AMY3; CALCR/RAMP3; assay: Agonist activity at human amylin receptor expressed in BHK570 cells co-expressing RAMP3 assessed as increase in intracellular cAMP concentration incubated for 3 hrs in presence of 10% FBS by CRE luciferase reporter gene assay; format: functional, cell-based
[16] = Solubility in 100 mM bistrispropane buffer at pH 6.0 incubated for 18 hrs by UPLC analysis; format: physicochemical
[17] = Solubility in 100 mM bistrispropane buffer at pH 6.5 incubated for 18 hrs by UPLC analysis; format: physicochemical
[18] = Solubility in 100 mM bistrispropane buffer at pH 7.0 incubated for 18 hrs by UPLC analysis; format: physicochemical
[19] = biological target: T1, Amylin receptor AMY3; CALCR/RAMP3; assay: Displacement of [125I]-labeled rat amylin from human amylin receptor expressed in BHK570 cell membranes co-expressing RAMP3 incubated for 120 mins by scintillation proximity assay
Calcitonin receptor [20] = biological target: T2, Calcitonin receptor; assay: Displacement of [125I]-labeled human calcitonin from human calcitonin receptor expressed in BHK tkts13 cell membranes incubated for 1 hr by scintillation proximity assay
[21] = biological target: T3, Amylin receptor AMY3; CALCR/RAMP3 (Rattus norvegicus, UniProt P32214+Q9JJ73); assay: Displacement of [125I]-labeled rat amylin from rat amylin receptor expressed in BHK tkts13 cell membranes co-expressing RAMP3 incubated for 120 mins by scintillation proximity assay
T3 sequence (P32214 whole entry): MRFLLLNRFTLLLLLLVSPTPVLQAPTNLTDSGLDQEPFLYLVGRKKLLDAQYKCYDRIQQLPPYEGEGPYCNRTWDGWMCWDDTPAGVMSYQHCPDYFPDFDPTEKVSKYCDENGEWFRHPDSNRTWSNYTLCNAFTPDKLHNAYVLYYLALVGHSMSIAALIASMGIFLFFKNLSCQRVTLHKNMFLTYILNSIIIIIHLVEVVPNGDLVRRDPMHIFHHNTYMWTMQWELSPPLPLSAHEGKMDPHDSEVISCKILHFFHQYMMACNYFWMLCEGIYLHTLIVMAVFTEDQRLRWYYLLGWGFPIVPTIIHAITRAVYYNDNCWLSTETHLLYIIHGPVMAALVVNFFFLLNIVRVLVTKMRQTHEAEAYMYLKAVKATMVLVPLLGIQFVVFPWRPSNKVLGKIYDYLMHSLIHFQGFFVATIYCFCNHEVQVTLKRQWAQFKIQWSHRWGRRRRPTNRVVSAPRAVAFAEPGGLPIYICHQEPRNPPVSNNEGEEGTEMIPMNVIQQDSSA
T3 sequence (Q9JJ73 whole entry): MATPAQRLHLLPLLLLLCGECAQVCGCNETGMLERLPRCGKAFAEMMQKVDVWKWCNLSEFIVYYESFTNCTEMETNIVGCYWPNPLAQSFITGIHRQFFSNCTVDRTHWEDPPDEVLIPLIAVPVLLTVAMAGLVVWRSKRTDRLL

Structure (SMILES): CC(C)C[C@H](NC(=O)CNC(=O)[C@H](CO)NC(=O)[C@H](C)N)C(=O)N[C@@H](CO)C(=O)N[C@H](C(=O)N[C@@H](C)C(=O)N[C@@H](C)C(=O)N[C@@H](CC(C)C)C(=O)NCC(=O)N[C@@H](CCCNC(=N)N)C(=O)N[C@@H](CC(C)C)C(=O)N[C@@H](CO)C(=O)N[C@@H](CCC(N)=O)C(=O)N[C@@H](CCC(=O)O)C(=O)N[C@@H](CC(C)C)C(=O)N[C@@H](Cc1cnc[nH]1)C(=O)N[C@@H](CCC(=O)O)C(=O)N[C@@H](CC(C)C)C(=O)N[C@@H](CCC(N)=O)C(=O)N[C@H](C(=O)N[C@@H](Cc1ccc(O)cc1)C(=O)N1CCC[C@H]1C(=O)N[C@@H](CCCNC(=N)N)C(=O)N[C@H](C(=O)N[C@@H](CCC(=O)O)C(=O)N[C@H](C(=O)NCC(=O)N[C@@H](CO)C(=O)N[C@@H](CCCCNC(=O)CC[C@H](NC(=O)CCCCCCCCCCCCCCCCCCC(=O)O)C(=O)O)C(=O)N[C@H](C(=O)N[C@@H](Cc1ccc(O)cc1)C(N)=O)[C@@H](C)O)[C@@H](C)O)[C@@H](C)O)[C@@H](C)O)[C@@H](C)O (H-ASGLSTAALGRLSQELHELQTYPRTETGSK([γGlu-C20 diacid])TY-NH2)
- Activity (Rattus norvegicus [1]): 4%
- Activity (Rattus norvegicus [2]): -5%
- EC50 [3]: 0.068 nM
- EC50 (Calcitonin receptor [4]): 0.036 nM
- EC50 (Calcitonin receptor [5]): 0.113 nM
- Time [6]: 0.3 h
- remaining at 1 µM [7]: 0%
- solubility at 18 h [8]: ≥ 200 µM
- solubility at 18 h [9]: ≥ 200 µM
- solubility at 18 h [10]: ≥ 200 µM
- solubility at 18 h [11]: ≥ 200 µM
- solubility at 18 h [12]: ≥ 200 µM
- IC50 [13]: 5.45 nM
- IC50 (Calcitonin receptor [14]): 1.27 nM

Structure (SMILES): CC(C)C[C@H](NC(=O)[C@H](C)NC(=O)[C@H](C)NC(=O)[C@@H](NC(=O)[C@H](CO)NC(=O)[C@H](CC(C)C)NC(=O)[C@H](CCC(=O)O)NC(=O)[C@H](CO)NC(=O)[C@H](C)NC(=O)COCCOCCNC(=O)COCCOCCNC(=O)COCCOCCNC(=O)CC[C@H](NC(=O)CCCCCCCCCCCCCCCCCCC(=O)O)C(=O)O)[C@@H](C)O)C(=O)NCC(=O)N[C@@H](CCCNC(=N)N)C(=O)N[C@@H](CC(C)C)C(=O)N[C@@H](CO)C(=O)N[C@@H](C)C(=O)N[C@@H](CCC(=O)O)C(=O)N[C@@H](CC(C)C)C(=O)N[C@@H](Cc1cnc[nH]1)C(=O)N[C@@H](CCC(=O)O)C(=O)N[C@@H](CC(C)C)C(=O)N[C@@H](C)C(=O)N[C@H](C(=O)N[C@@H](CC(C)C)C(=O)N1CCC[C@H]1C(=O)N[C@@H](CCCNC(=N)N)C(=O)N[C@H](C(=O)N[C@@H](CCC(=O)O)C(=O)N[C@H](C(=O)NCC(=O)N[C@@H](CO)C(=O)NCC(=O)N[C@@H](CO)C(=O)N1CCC[C@H]1C(N)=O)[C@@H](C)O)[C@@H](C)O)[C@@H](C)O ({C20 diacid-γGlu-AEEA-AEEA-AEEA}-ASELSTAALGRLSAELHELATLPRTETGSGSP-NH2)
- EC50 [3]: 0.018 nM
- EC50 (Calcitonin receptor [4]): 0.011 nM
- EC50 [15]: 0.068 nM
- EC50 (Calcitonin receptor [5]): 0.025 nM
- Time [6]: > 45 h
- remaining at 1 µM [7]: 100%
- solubility at 18 h [8]: ≥ 200 µM
- solubility at 18 h [9]: ≥ 200 µM
- solubility at 18 h [16]: ≥ 200 µM
- solubility at 18 h [10]: ≥ 200 µM
- solubility at 18 h [17]: ≥ 200 µM
- solubility at 18 h [18]: ≥ 200 µM
- solubility at 18 h [11]: ≥ 200 µM
- solubility at 18 h [12]: ≥ 200 µM
- IC50 [19]: 0.164 nM
- IC50 (Calcitonin receptor [20]): 0.05 nM
- IC50 [13]: 0.432 nM
- IC50 (Calcitonin receptor [14]): 0.352 nM

Structure (SMILES): CC(C)C[C@H](NC(=O)[C@H](C)NC(=O)[C@H](C)NC(=O)[C@@H](NC(=O)[C@H](CO)NC(=O)[C@H](CC(C)C)NC(=O)[C@H](CCC(=O)O)NC(=O)[C@H](CO)NC(=O)[C@H](C)NC(=O)CC[C@H](NC(=O)CCCCCCCCCCCCCCCCCCC(=O)O)C(=O)O)[C@@H](C)O)C(=O)NCC(=O)N[C@@H](CCCNC(=N)N)C(=O)N[C@@H](CC(C)C)C(=O)N[C@@H](CO)C(=O)N[C@@H](C)C(=O)N[C@@H](CCC(=O)O)C(=O)N[C@@H](CC(C)C)C(=O)N[C@@H](Cc1cnc[nH]1)C(=O)N[C@@H](CCC(=O)O)C(=O)N[C@@H](CC(C)C)C(=O)N[C@@H](C)C(=O)N[C@H](C(=O)N[C@@H](Cc1ccc(O)cc1)C(=O)N1CCC[C@H]1C(=O)N[C@@H](CCCNC(=N)N)C(=O)N[C@H](C(=O)N[C@@H](CCC(=O)O)C(=O)N[C@H](C(=O)NCC(=O)N[C@@H](CO)C(=O)NCC(=O)N[C@@H](CO)C(=O)N1CCC[C@H]1C(N)=O)[C@@H](C)O)[C@@H](C)O)[C@@H](C)O ({C20 diacid-γGlu}-ASELSTAALGRLSAELHELATYPRTETGSGSP-NH2)
- Activity (Rattus norvegicus [1]): 45%
- Activity (Rattus norvegicus [2]): 67%
- EC50 (Calcitonin receptor [4]): 0.023 nM
- EC50 [15]: 0.067 nM
- Time [6]: > 45 h
- remaining at 1 µM [7]: 100%
- solubility at 18 h [8]: ≥ 200 µM
- solubility at 18 h [9]: ≥ 200 µM
- solubility at 18 h [16]: ≥ 200 µM
- solubility at 18 h [10]: ≥ 200 µM
- solubility at 18 h [17]: ≥ 200 µM
- solubility at 18 h [18]: ≥ 200 µM
- solubility at 18 h [11]: ≥ 200 µM
- solubility at 18 h [12]: ≥ 200 µM
- IC50 (Calcitonin receptor [20]): 0.07 nM
- IC50 [21]: 3.99 nM
- IC50 [13]: 2.61 nM
- IC50 (Calcitonin receptor [14]): 2.94 nM
